Data as given in patent US9388405B2, “Method for identifying a subpopulation of mammalian cells with distinctive ribosome translation profiles” (priority 2009, dated 2016).

What was measured:
Assay type in all cases: cell-based, human
[1] = tested on: MCF7 CMV-fLuc subclones #44 and #48; experiment: PKC activator dose response, cap-dependent translation (fLuc); settings: single-Toxin
Protocol: Following 6 hr exposure to the Single-Toxin TPA assay, cells were lysed and fLuc protein activity measured using a standard microplate reader assay. The raw values were averaged and expressed as the ratio of treated to untreated samples (Fold Induction).
Dashed lines represent translational response levels produced by a 100 nM TPA Single-Toxin assay. The Bryostatin 1 concentrations (top panel) encompassed the TPA concentrations used in FIG. 27A. […] The Bryostatin 2 dose response curve (bottom panel) employed higher drug concentrations (the maximal tested dose was 5× the largest TPA and Bryostatin 1 amounts). At the highest tested dose (2.5 uM), Bryostatin 2 produced fLuc activity consistent with the level observed with 100 nM TPA.
In addition to measuring cap-dependent and cap-independent translational effects, Class-specific translational activity and toxin-defined actions, the previously described materials and methods allow for a variety of applications designed to detect and characterize agents and processes that regulate ribosome activity. In this example, comparative dose response assays were used to detect cap-dependent and cap-independent translational regulation in MCF7 cells. The basis for this application was the observation that distinct translational responses are produced by compounds at different doses. When an assortment of compounds act on a common molecular target, they can be grouped into a genus of related drugs. By comparing individual species of a compound genus over a defined dose range, differences in translational regulation can be defined. Furthermore, these translational differences can often be linked to biological differences.
In this example (FIG. 27), the three PKC activators produced similar dose response trends in cap-dependent assays. […] However, macrolide lactones produced translational increases that were generally 60-70% of the TPA translational response (FIG. 27B). In fact, a 25 fold increase in Bryostatin 2 concentration (2.5 uM) was needed to produce a translational magnitude similar to the 100 nM TPA assay (FIG. 27B).

[2] = tested on: MCF7 mTRdm-fLuc subclones #8, #27, and #45; experiment: PKC activator dose response, cap-independent TR translation (fLuc); settings: single-Toxin
Protocol: Following 6 hr culture with a TPA single-Toxin assay, cells were lysed and fLuc protein activity measured using a standard microplate reader assay. The plate reader values were averaged and expressed as the ratio of treated to untreated samples (Fold Induction).
As with FIG. 27B, dashed lines represent translational response levels achieved by the 100 nM TPA assay in each cell line. […] A further difference between the cap-dependent and cap-independent assays was the observation that increased Bryostatin 2 concentrations (5× the maximal TPA dose) never produced fLUC activity equivalent to the 100 nM TPA assay. Thus, the Toxin Assay procedure can detect a statistically significant difference in cap-dependent and cap-independent translation in compounds that activate PKC activity.
In the cap-independent assays, a similar dose response trend was observed over a 1 nM to 250 nM range with a translational peak at a 100 nM dose. However, the magnitude of the Bryostatin increases were generally 30% of 100 nM TPA response.

[3] = tested on: HEK293 CMV-fLUC #3, hTRdm-fLUC #13 and mTRdm-fLUC #45 subclones; experiment: Translation elongation inhibitor single-Toxin and two-Toxin (100 nM TPA) dose response; settings: for low dose sufficient to reduce reporter protein levels below untreated control cells: HEK293 CMV-fLUC #3 and mTRdm-fLUC #45 subclones; for reporter protein level versus untreated control: 25 uM inhibitor + 100 nM TPA, HEK293 mTRdm-fLUC #45 subclone
Protocol: At sufficiently large doses, these inhibitors immediately stop protein translation, and the resulting protein turnover reduces reporter protein levels below untreated cell levels (<100% control).
For the HEK293 CMV-fLUC #3 (top panel) and mTRdm-fLUC #45 (bottom panel) subclones, anisomycin and emetine antagonized the TPA response at the lowest tested dose (10 nM) and reduced reporter protein levels 50-300% compared to the TPA single-Toxin assay. This contrasted with puromycin, which required a 250 nM concentration (25×) to initially reduce protein synthesis below the TPA Single-Toxin assay level in all three cell lines. […] For example, the CMV-fLUC #3 subclone required a 2.5 uM puromycin dose to correlate with the other inhibitors, which contrasted with hTRdm-fLUC #13 and mTRdm-fLUC #45 subclones which needed a 25 uM puromycin concentration (a 10× increase).
In this example (FIG. 33), single-Toxin and two-Toxin dose responses were used to define translational responses associated with translation inhibitors. Inhibitors of protein biosynthesis generally act by interfering with translational initiation (assembly of the components or structures required for translation) or elongation (enzymatic process of peptide synthesis and chain movement within the ribosome). A variety of translational inhibitors exist that affect each of these stages. Due to the fact that cap-dependent and cap-independent translation display distinct translational initiation mechanisms, this example focused on translational inhibitors associated with peptide elongation. Since the majority of these enzymatic processes are common to cap-dependent and cap-independent translation, any significant differences in chain elongation reflect differences in peptide synthesis.
A dose response single-Toxin assay was used to examine translation regulation in HEK293 cells (FIG. 33A). […] For example, translation inhibition stops reporter protein production, and protein turnover reduces reporter activity below the basal level. In this example, a 250 nM concentration of each inhibitor was sufficient to reduce protein synthesis below control cell levels in cap-dependent and cap-independent assays (FIG. 33A). Furthermore, any dose above 2.5 uM produced only minimal additional reductions in reporter protein activity supporting the theory that translation in these assays had ceased.
In a second effort, a two-Toxin dose response assay was performed by varying the concentration of the elongation inhibitors in combination with the 100 nM TPA activator (FIG. 33B). This combinatorial assay was designed to examine protein synthesis in stimulated cells preferentially translating the TR transcript. As in the single-Toxin assays, cap-dependent translation was arrested by 2.5 uM puromycin (top panel) which contrasted with the cap-independent assays where a 10× increase in puromycin concentration (25 uM) was needed to prevent new protein synthesis. However even at this highest tested dose, immediate translation inhibition was not observed in any cell line (FIG. 33C).

[4] = tested on: MCF7 CMV-fLuc subclone #65; experiment: Topoisomerase 1 inhibitor single-Toxin and two-Toxin (100 nM TPA) dose response, cap-dependent; settings: 10 nM to 10 uM; for dose at peak of fLuc protein expression: 6 hr; for dose at peak of fLuc protein expression / effect on TPA-specific translational response: cap-dependent; for effect on TPA-specific translational response: two-Toxin with constant 100 nM TPA
Protocol: FIG. 28A illustrates a dose response assay of the MCF7 CMV-fLuc subclone #65 treated with varying doses (10 nM to 10 uM range) of the following Topoisomerase 1 inhibitors: camptothecin, topotecan, irinotecan, and rubitecan. Following a 6 hr incubation in a single-Toxin assay, cells were lysed and fLuc protein activity measured using a standard microplate reader assay. The plate reader values were averaged and expressed as the ratio of treated to untreated samples (Fold Induction). The dashed line represents the level of translational response in untreated cell samples.
FIG. 28B illustrates the use of a Combinatorial Assay to examine the effects of Topoisomerase 1 inhibitors on cap-dependent translation. A series of dose response assays were performed on the MCF7 CMV-fLuc subclone #65 using varying doses of the Topoisomerase 1 inhibitors (10 nM to 10 uM range) in a Two-Toxin assay with a constant 100 nM TPA dose. The plate reader values were averaged and expressed as the ratio of treated to untreated samples (Fold Induction). The dashed line represents the level of translational response in untreated samples.
FIG. 28A illustrates a cap-dependent dose response assay of MCF7 cells treated with varying dosages (10 nM to 10 uM range) of the following TopoI inhibitors: camptothecin, topotecan, irinotecan, and rubitecan. […] While the altered irinotecan response might have been predicted based on its metabolic requirements, the lack of topotecan action on cap-dependent translation in the single-Toxin assays was unexpected.
Since similar doses inhibited translation in the single-Toxin assays (FIG. 28A), this effect might have represented a direct effect on translation.

[5] = tested on: MCF7 mTRdm-fLuc subclone #27; experiment: Topoisomerase 1 inhibitor single-Toxin and two-Toxin (100 nM TPA) dose response, cap-independent; settings: 10 nM to 10 uM; for effect on cap-independent translation: single-Toxin; for effect on TPA activity: two-Toxin with 100 nM TPA
Protocol: FIG. 28C illustrates the use of single-Toxin Assays to measure the effects of Topoisomerase 1 inhibitors on cap-independent translation in MCF7 cells. Triplicate samples of the MCF7 mTRdm-fLuc subclone #27 were treated with varying concentrations (10 nM to 10 uM range) of the Topoisomerase 1 inhibitors; camptothecin, rubitecan, irinotecan and topotecan. The plate reader values were averaged and expressed as the ratio of treated to untreated samples (Fold Induction). The dashed line represents the level of translational response in untreated controls.
FIG. 28D illustrates the use of a two-Toxin Combinatorial Assay on the MCF7 mTRdm-fLuc subclone #27 treated with 100 nM TPA plus varying doses (10 nM to 10 uM range) of the Topoisomerase 1 inhibitors. The plate reader values were averaged and expressed as the ratio of treated to untreated samples (Fold Induction). The dashed line represents the level of translational response in untreated samples. All four inhibitors acted synergistically with TPA to increase protein activity in the 10 nM two-Toxin assay.
FIG. 28D illustrates the use of a two-Toxin dose response assay using varying dosages of the TopoI inhibitors in combination with the 100 nM TPA translational activator. All four inhibitors acted synergistically with TPA at low doses to increase protein translation. At concentrations higher than 100 nM, camptothecin, rubitecan, and topotecan antagonized the TPA response and reduced the fLUC expression.

CCC/C=C/C=C/C(=O)O[C@H]1/C(=C/C(=O)OC)C[C@H]2C[C@H]([C@@H](C)O)OC(=O)C[C@H](O)C[C@@H]3C[C@H](OC(C)=O)C(C)(C)[C@](O)(C[C@@H]4C/C(=C/C(=O)OC)C[C@H](/C=C/C(C)(C)[C@]1(O)O2)O4)O3 [Bryostatin 1]
magnitude of reporter activity versus 100 nM TPA assay ([1]; 500 pM to 500 nM): never reached the fLuc activity level produced by the 100 nM TPA assay | dose giving maximal reporter level (translational peak) ([1]; 6 hr): 100 nM | magnitude of translational response versus 100 nM TPA tests [2]: never reached the fLuc activity produced in 100 nM TPA tests | dose giving peak fLuc protein activity ([2]; 6 hr): 100 nM

COc1ccc(C[C@H]2NC[C@H](O)[C@H]2OC(C)=O)cc1 [anisomycin]
reduction of reporter protein levels compared to the TPA single-Toxin assay ([3]; 10 nM inhibitor + 100 nM TPA, CMV-fLUC #3 and mTRdm-fLUC #45): 50-300% | low dose sufficient to reduce reporter protein levels below untreated control cells ([3]; single-Toxin): ~25 nM

CC[C@@]1(O)C(=O)OCc2c1cc1n(c2=O)Cc2cc3c([N+](=O)[O-])cccc3nc2-1 [rubitecan]
dose at peak of fLuc protein expression ([4]; single-Toxin): ~1 µM | effect on TPA-specific translational response [4]: acted synergistically with TPA to increase fLUC protein activity up to a 1 uM dose | effect on cap-independent translation [5]: exhibited reduced fLUC activity at higher doses (5 uM and 10 uM) | effect on TPA activity [5]: antagonized the TPA activity and exhibited reduced fLUC expression

COc1ccc(C[C@H](N)C(=O)N[C@H]2[C@@H](O)[C@H](n3cnc4c(N(C)C)ncnc43)O[C@@H]2CO)cc1 [puromycin]
reporter protein level versus untreated control [3]: little or no reduction below untreated control cell levels | concentration required to reduce reporter protein levels to levels comparable to the other three inhibitors ([3]; single-Toxin, cap-dependent and cap-independent): 2.5 µM | dose required to correlate with the other inhibitors (translation arrested) ([3]; two-Toxin with 100 nM TPA, CMV-fLUC #3 subclone, cap-dependent): 2.5 µM | concentration required to initially reduce protein synthesis below the TPA Single-Toxin assay level ([3]; two-Toxin with 100 nM TPA, all three cell lines): 250 nM | concentration needed to correlate with the other inhibitors (prevent new protein synthesis) ([3]; two-Toxin with 100 nM TPA, hTRdm-fLUC #13 and mTRdm-fLUC #45, cap-independent): 25 µM

CC[C@H]1CN2CCc3cc(OC)c(OC)cc3[C@@H]2C[C@@H]1C[C@H]1NCCc2cc(OC)c(OC)cc21 [emetine]
reporter protein level versus untreated control [3]: little or no reduction below untreated control cell levels | low dose sufficient to reduce reporter protein levels below untreated control cells ([3]; single-Toxin): 100 nM

CCc1c2c(nc3ccc(OC(=O)N4CCC(N5CCCCC5)CC4)cc13)-c1cc3c(c(=O)n1C2)COC(=O)[C@]3(O)CC [irinotecan]
effect on cap-dependent translation ([4]; single-Toxin): neither topotecan or irinotecan significantly altered cap-dependent translation | effect on TPA-specific translational response [4]: did not produce any significant change in the TPA-specific translational response | effect on cap-independent translation [5]: constant amount of fLUC activity at all tested concentrations | effect on TPA activity [5]: displayed synergistic action with TPA and enhanced fLUC activity at all tested doses

C[C@@H]1C[C@@H]([C@H](O)CC2CC(=O)NC(=O)C2)C(=O)[C@@H](C)C1 [cycloheximide]
reporter protein level versus untreated control [3]: little or no reduction below untreated control cell levels

CC[C@@]1(O)C(=O)OCc2c1cc1n(c2=O)Cc2cc3ccccc3nc2-1 [camptothecin]
dose at peak of fLuc protein expression ([4]; single-Toxin): ~1 µM | effect on TPA-specific translational response [4]: acted synergistically with TPA to increase fLUC protein activity up to a 1 uM dose | effect on cap-independent translation [5]: exhibited reduced fLUC activity at higher doses (5 uM and 10 uM) | effect on TPA activity [5]: antagonized the TPA activity and exhibited reduced fLUC expression
